Columns and labels:
[1] = target: von Hippel-Lindau disease tumor suppressor/SWI/SNF-related matrix-associated actin-dependent regulator of chromatin subfamily A member 2 (Homo sapiens) (UniProt P51531+P40337); assay: PROTAC activity at VHL/SMARCA2 in human NCI-H838 cells assessed as induction of SMARCA2 degradation at 0.001 to 1000 nM incubated for 24 hrs by Western blotting analysis relative to control; format: cell-based; conditions: dose 0.001-1000 nM
[2] = target: von Hippel-Lindau disease tumor suppressor/SWI/SNF-related matrix-associated actin-dependent regulator of chromatin subfamily A member 4 (Homo sapiens) (UniProt P51532+P40337); assay: PROTAC activity at VHL/SMARCA4 in human MV4-11 cells assessed as induction of SMARCA4 degradation by measuring maximal efficacy incubated for 18 hrs by Western blotting analysis relative to control; format: cell-based
[3] = target: T1, DNA repair protein RAD52 homolog (Homo sapiens, UniProt P43351); assay: Inhibition of RAD52 (unknown origin) by FRET analysis
T1 sequence (P43351 whole entry): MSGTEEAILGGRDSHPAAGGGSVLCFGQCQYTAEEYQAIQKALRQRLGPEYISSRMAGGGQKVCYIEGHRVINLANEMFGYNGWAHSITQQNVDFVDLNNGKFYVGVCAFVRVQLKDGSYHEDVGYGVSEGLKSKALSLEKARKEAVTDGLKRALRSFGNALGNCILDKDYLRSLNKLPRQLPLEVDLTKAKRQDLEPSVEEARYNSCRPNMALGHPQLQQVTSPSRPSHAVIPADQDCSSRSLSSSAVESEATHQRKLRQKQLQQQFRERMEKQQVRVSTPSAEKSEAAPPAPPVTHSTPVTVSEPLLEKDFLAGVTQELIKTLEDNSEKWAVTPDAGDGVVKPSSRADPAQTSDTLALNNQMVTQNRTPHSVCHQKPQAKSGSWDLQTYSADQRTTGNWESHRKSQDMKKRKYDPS

[4] = target: DNA-dependent protein kinase catalytic subunit (Homo sapiens, UniProt P78527)
Description: Inhibition of DNA-PK in human HCT-116 cells measured after 1 hr by Bradford assay

[5] = system: HEK293; assay: Antiproliferative activity against HEK293 cells assessed as inhibition of cell growth incubated for 48 hrs by CCK8 assay; format: functional, cell-based; conditions: Homo sapiens, HEK293, 48 h
[6] = Intrinsic clearance in mouse liver microsomes; format: ADME, Microsome
[7] = target: T2, Ubiquitin carboxyl-terminal hydrolase 1 (Homo sapiens, UniProt O94782); assay: Inhibition of human recombinant USP1 expressed in baculovirus expressed in Bac-to-Bac baculovirus expression system
T2 sequence (O94782 whole entry): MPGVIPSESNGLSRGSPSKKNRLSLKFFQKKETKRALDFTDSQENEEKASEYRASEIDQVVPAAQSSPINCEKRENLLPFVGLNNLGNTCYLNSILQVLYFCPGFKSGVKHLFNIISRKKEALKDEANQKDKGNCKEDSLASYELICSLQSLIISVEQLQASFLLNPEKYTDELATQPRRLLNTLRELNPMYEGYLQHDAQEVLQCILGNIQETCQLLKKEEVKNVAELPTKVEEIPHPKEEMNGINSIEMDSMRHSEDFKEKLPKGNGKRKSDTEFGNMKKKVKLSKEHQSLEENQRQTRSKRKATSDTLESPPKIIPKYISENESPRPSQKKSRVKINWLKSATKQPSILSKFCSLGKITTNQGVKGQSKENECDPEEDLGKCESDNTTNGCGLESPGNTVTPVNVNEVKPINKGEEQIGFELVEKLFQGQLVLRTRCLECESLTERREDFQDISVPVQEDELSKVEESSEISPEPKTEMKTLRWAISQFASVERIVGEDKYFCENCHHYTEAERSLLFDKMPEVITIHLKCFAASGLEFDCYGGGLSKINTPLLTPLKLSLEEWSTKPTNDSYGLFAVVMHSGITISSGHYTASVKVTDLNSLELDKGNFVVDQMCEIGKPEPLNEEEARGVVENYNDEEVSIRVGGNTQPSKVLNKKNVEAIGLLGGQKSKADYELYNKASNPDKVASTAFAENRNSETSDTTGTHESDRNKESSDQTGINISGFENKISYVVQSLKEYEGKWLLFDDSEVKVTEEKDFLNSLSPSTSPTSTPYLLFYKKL

[8] = system: LoVo; assay: Antiproliferative activity against human LoVo cells assessed as reduction in cell viability measured for 48 hrs byT assay; format: functional, cell-based
[9] = Intrinsic clearance in human liver microsomes; format: ADME, Microsome
[10] = Antiproliferative activity against human UWB1289 cells harboring BRCA1 assessed inhibition of cell growth incubated for 48 hrs by MTT assay; format: functional, cell-based; conditions: UWB1289, 48 h

Chain of von Hippel-Lindau disease tumor suppressor/SWI/SNF-related matrix-associated actin-dependent regulator of chromatin subfamily A member 2 (Homo sapiens) (P40337 whole entry, looked up): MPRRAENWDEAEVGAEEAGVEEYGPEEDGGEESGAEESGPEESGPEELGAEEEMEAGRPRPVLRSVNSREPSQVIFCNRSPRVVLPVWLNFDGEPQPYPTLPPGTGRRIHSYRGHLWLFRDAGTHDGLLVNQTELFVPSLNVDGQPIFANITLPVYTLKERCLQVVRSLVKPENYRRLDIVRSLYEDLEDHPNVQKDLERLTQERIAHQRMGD
Chain of von Hippel-Lindau disease tumor suppressor/SWI/SNF-related matrix-associated actin-dependent regulator of chromatin subfamily A member 2 (Homo sapiens) (P51531 whole entry, looked up): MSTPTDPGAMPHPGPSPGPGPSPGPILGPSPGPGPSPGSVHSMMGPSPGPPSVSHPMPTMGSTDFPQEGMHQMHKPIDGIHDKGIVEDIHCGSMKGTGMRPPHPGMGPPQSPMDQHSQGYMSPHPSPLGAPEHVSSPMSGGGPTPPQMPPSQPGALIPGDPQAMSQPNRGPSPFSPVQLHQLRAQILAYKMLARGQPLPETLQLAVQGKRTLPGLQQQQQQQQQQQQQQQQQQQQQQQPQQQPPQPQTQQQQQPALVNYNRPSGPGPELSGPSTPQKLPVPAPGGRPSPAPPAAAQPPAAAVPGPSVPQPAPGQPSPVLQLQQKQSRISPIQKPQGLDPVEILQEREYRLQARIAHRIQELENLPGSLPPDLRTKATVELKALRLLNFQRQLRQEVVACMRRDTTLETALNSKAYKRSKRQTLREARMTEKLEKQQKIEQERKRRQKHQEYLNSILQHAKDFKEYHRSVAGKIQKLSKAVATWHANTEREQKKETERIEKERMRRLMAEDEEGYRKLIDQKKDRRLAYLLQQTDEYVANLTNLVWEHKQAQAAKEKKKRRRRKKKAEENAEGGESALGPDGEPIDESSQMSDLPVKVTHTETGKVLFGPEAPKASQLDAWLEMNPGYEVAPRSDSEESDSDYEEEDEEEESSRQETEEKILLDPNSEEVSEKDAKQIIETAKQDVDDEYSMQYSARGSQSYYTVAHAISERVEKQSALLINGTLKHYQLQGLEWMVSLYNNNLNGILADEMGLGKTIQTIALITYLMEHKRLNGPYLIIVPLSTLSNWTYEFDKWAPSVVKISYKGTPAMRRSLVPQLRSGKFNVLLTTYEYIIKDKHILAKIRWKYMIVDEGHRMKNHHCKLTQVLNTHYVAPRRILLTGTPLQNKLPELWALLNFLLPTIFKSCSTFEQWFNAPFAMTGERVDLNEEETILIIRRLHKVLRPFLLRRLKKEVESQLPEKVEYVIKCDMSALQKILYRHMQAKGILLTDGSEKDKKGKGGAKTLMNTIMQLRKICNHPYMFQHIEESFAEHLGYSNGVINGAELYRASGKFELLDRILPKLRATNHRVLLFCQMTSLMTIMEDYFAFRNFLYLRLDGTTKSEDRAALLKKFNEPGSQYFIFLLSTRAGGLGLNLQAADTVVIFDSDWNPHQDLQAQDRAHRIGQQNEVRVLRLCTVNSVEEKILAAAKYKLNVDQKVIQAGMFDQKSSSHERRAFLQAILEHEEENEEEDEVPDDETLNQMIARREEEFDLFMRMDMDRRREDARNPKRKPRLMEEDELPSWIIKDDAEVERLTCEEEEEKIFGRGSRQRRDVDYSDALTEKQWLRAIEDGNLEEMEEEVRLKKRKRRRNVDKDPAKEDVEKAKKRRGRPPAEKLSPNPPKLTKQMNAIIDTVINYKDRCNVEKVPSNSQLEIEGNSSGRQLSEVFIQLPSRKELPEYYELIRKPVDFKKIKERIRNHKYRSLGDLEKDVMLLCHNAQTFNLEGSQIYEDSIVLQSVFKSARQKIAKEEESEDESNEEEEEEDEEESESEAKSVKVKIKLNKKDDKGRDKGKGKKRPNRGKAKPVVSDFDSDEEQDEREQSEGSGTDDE
Chain of von Hippel-Lindau disease tumor suppressor/SWI/SNF-related matrix-associated actin-dependent regulator of chromatin subfamily A member 4 (Homo sapiens) (P40337 whole entry, looked up): as the sequence (P40337 whole entry, looked up) above
Chain of von Hippel-Lindau disease tumor suppressor/SWI/SNF-related matrix-associated actin-dependent regulator of chromatin subfamily A member 4 (Homo sapiens) (P51532 whole entry, looked up): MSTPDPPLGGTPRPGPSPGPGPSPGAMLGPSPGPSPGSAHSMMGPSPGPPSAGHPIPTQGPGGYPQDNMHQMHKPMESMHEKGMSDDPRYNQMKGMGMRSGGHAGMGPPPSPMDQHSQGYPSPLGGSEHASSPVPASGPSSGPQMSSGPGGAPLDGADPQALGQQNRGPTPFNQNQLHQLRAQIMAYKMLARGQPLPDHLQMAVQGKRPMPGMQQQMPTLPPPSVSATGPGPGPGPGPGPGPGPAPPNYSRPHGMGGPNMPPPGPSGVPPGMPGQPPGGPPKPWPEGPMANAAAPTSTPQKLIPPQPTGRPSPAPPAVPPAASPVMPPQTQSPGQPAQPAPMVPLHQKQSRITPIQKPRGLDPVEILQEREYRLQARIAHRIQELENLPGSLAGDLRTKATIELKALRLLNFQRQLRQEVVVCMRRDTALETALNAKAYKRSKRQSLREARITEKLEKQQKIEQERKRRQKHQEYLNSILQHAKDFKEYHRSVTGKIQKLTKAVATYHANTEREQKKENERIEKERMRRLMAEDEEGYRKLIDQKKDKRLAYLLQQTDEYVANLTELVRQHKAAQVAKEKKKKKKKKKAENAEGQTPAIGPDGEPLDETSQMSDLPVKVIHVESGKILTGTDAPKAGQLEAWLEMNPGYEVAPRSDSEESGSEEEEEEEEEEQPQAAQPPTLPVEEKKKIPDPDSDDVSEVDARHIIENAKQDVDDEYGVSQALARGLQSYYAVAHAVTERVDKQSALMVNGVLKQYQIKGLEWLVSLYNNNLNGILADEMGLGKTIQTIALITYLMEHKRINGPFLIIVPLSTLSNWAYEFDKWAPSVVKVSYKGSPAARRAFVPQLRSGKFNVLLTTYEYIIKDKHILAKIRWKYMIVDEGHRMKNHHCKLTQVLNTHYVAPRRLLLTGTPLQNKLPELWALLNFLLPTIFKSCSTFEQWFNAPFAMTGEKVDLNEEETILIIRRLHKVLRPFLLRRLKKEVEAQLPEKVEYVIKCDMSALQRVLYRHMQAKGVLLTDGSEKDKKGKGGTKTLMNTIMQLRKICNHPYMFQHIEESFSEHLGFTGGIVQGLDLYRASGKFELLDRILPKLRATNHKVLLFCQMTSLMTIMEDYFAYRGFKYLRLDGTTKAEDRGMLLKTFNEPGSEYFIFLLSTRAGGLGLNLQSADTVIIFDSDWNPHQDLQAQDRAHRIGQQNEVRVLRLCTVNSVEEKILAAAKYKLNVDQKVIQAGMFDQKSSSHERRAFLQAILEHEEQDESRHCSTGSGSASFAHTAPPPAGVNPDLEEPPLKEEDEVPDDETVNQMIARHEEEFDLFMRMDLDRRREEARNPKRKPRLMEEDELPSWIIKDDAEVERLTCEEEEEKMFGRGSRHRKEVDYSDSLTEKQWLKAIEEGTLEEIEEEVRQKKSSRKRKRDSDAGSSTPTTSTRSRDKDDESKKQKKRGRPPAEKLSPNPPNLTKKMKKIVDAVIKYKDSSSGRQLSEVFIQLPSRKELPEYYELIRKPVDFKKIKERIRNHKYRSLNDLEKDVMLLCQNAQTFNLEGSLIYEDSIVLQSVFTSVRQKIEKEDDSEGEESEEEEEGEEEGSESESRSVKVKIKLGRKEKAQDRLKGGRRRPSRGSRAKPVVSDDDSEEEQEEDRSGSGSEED

`Cc1ncsc1-c1ccc([C@H](CC[C@H](C)CCN2CCC(c3ccc4c(c3)n(C3CCCC3)c3nc(=O)c5c(Br)cccc5n43)CC2)NC(=O)[C@@H]2C[C@@H](O)CN2C(=O)[C@@H](NC(=O)C2(F)CC2)C(C)(C)C)cc1` showed an Emax [1] of 81% and an Emax [2] of 67%.
With `O=C(Cn1cccc([N+](=O)[O-])c1=O)c1c[nH]c2ccccc12` the IC50 [3] was 2000 nM.
For `CC(C)NCCOc1ncc(-c2cc3c4c(cnc3cc2F)N(C)C(=O)C42CCC2)cc1NS(C)(=O)=O`, the IC50 [4] was 0.89 nM.
Molecule `C[C@@H]1COCCN1c1cc(N=[S@@](C)(=O)C2CC2)nc(-c2ccnc(N)c2)n1` has an IC50 [5] of 7900 nM.
Molecule `Cn1c(=O)c2cc(S(=O)(=O)NC3(C)CC3)ccc2n(C)c1=O` has a CLH [6] of 211 µL/min/mg.
Work on `CC(C)c1ccccc1-c1ncc2[nH]c(=O)n(Cc3ccc(-c4nc(C(F)(F)F)cn4C)cc3)c2n1` yielded an IC50 [7] of 4.1 nM.
In the case of `Nc1nn2cc(F)cnc2c1C(=O)Nc1cncc(F)c1N1CCC(C(=O)N2CCN(C3COC3)CC2)CC1` [M4344], the IC50 [8] is reported as 86 nM.
In the case of `COc1ccccc1NS(=O)(=O)c1cc(C(=O)O)ccc1C`, the IC50 [3] is reported as 2000 nM.
With `Cc1ncc(Cn2c(=O)c3cc(S(=O)(=O)NC4(C)CC4)ccc3n(CC3CC3)c2=O)s1` the CLH [9] was 78 µL/min/mg.
With `Cc1cccc(N(C)C(=O)[C@@H]2[C@H](O)CCN2c2nc(C)cc(C(F)(F)F)c2C#N)c1` the IC50 [10] was 7.9 nM.

From ChEMBL document CHEMBL5500422, “New Horizons of Synthetic Lethality in Cancer: Current Development and Future Perspectives” (J Med Chem, 2024)
